Two molecules from PMC6370829, “NADP^+ is an endogenous PARP inhibitor in DNA damage response and tumor suppression” (Nature Communications, 2019) can be followed below.

One may read the Kd as the equilibrium constant for the complex coming apart.

In experiment [1] the target is T1, PARP10 (Homo sapiens, UniProt Q53GL7).
T1 construct: GST-PARP10
T1 sequence (Q53GL7 1-1025): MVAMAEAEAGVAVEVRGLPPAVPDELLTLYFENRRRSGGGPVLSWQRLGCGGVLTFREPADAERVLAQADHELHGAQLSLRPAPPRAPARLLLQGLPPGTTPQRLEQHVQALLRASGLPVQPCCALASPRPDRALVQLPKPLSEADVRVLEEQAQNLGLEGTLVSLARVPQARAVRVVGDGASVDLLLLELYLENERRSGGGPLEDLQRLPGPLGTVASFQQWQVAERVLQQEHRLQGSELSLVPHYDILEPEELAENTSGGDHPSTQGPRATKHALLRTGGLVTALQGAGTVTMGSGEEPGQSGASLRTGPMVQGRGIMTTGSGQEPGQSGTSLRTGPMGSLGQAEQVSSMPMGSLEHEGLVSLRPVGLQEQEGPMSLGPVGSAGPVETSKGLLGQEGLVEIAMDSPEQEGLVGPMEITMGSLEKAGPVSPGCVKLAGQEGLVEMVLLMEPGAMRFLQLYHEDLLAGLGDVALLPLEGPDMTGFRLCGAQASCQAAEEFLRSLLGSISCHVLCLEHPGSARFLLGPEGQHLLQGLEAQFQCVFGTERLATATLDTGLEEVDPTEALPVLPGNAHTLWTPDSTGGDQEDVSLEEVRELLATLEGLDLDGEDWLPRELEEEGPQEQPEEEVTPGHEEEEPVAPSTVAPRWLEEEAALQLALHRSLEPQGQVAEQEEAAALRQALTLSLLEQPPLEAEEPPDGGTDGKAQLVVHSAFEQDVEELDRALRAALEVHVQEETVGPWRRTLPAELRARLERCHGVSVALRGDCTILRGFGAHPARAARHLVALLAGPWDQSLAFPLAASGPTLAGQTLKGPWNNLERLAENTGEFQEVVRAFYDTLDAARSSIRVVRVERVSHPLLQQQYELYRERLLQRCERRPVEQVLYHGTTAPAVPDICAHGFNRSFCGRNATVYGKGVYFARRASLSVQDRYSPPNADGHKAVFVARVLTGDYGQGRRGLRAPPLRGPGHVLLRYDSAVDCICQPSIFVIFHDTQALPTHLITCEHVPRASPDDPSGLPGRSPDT
The experiment in a line: […]NADP+ binding to immobilized protein (TLC); also inhibition of auto-MARylation.

A further experiment deals with T2, NADK (Homo sapiens, UniProt O95544).
T2 construct: recombinant NADK
T2 sequence (O95544 1-446): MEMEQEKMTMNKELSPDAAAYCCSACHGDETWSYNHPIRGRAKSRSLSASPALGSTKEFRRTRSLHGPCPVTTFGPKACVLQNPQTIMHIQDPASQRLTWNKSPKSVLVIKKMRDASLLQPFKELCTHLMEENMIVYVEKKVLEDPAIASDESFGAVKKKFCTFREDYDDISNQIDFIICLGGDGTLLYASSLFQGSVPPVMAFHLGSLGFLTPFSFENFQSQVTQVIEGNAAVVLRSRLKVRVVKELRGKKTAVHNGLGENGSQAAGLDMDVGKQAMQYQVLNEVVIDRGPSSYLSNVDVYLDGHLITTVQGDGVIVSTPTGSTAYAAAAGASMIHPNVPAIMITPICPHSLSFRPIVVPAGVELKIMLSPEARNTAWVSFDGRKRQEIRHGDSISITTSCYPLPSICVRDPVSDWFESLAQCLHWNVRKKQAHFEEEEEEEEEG
As to the kind of experiment: recombinant enzyme reaction, product confirmed by mass spectrometry. Format: biochemical.

For a further experiment, the target named is T3, PARP2 (Homo sapiens, UniProt Q9UGN5).
T3 construct: HIS-PARP2
T3 sequence (Q9UGN5 whole entry): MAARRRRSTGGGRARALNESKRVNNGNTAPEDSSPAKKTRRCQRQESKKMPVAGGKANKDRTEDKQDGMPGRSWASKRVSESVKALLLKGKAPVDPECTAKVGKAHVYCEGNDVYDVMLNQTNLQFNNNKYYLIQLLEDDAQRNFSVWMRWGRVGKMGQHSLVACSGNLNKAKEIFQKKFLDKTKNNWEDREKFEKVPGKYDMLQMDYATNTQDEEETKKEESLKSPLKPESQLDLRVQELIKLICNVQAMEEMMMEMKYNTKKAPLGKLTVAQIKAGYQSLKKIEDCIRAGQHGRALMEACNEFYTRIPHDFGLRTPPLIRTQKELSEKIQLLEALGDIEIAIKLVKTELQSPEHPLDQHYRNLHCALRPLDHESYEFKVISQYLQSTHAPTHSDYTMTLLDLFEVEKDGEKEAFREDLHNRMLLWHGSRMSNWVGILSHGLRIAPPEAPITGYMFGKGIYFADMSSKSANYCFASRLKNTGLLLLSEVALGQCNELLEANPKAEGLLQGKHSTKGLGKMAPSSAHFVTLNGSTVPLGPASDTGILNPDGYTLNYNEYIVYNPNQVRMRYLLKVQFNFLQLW
The experiment in a line: […]NADP+ binding to immobilized protein (TLC); also inhibition of auto-PARylation.

For experiment [2], the target named is T4, PARP1 (Homo sapiens, UniProt P09874). The experiment in a line: ITC; also […]NADP+ pull-down binding and inhibition of auto-PARylation. Also noted: catalytic domain (GST-PARP1 CAT, aa. 662–1014) for ITC. (Isothermal titration calorimetry measures the heat released or taken up as one component is titrated into another.)
Target sequence in this assay (P09874 662-1014): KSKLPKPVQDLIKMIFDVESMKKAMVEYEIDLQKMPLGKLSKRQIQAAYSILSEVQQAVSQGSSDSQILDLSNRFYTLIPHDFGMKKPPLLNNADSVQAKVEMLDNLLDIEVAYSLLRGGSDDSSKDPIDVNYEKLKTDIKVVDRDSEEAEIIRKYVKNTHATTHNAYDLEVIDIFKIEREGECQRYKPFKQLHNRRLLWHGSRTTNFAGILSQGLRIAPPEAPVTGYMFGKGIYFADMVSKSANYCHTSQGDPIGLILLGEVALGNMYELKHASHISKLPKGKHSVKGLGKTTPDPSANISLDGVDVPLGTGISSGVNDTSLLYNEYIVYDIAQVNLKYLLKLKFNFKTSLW
The target of experiment [3] is T4, PARP1. The experiment in a line: in vitro auto-PARylation, western blot and […]NAD+ autoradiography. It is filed as biochemical. Also noted: HIS-PARP1. (In western blotting, separated proteins are transferred to a membrane and probed.)
Target sequence in this assay (P09874 2-1014): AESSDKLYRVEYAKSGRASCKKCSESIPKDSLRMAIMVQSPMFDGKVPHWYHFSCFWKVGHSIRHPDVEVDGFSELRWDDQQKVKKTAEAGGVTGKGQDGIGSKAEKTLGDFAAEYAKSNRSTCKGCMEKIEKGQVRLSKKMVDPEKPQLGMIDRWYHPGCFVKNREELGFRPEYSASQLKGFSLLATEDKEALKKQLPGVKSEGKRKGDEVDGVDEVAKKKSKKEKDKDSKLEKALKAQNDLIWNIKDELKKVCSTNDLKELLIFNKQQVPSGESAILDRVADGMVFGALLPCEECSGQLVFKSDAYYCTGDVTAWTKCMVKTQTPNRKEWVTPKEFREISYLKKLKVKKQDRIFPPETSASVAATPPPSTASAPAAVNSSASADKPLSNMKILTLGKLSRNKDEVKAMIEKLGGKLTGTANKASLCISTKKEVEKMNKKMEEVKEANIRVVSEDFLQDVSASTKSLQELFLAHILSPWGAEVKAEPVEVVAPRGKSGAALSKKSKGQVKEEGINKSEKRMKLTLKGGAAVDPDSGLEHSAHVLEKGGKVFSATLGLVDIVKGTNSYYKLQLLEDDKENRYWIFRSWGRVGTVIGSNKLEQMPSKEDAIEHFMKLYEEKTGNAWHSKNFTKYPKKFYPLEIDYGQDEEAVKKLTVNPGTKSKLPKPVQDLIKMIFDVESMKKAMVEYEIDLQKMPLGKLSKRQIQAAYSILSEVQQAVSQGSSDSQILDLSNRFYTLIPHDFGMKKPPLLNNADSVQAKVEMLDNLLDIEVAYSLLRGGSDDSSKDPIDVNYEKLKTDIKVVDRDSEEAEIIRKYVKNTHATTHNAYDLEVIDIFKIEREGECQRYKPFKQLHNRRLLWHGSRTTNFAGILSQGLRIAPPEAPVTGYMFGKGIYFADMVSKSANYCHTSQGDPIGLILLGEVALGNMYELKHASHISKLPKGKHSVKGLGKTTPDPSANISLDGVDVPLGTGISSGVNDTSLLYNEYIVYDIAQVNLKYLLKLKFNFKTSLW
Experiment [4] has as its target T1, PARP10. As to the kind of experiment: in vitro auto-MARylation, autoradiography. It is filed as biochemical.

On to `NC(=O)c1ccc[n+]([C@@H]2O[C@H](COP(=O)(O)OP(=O)(O)OC[C@H]3O[C@@H](n4cnc5c(N)ncnc54)[C@H](OP(=O)(O)O)[C@@H]3O)[C@@H](O)[C@H]2O)c1` [NADP^+], for which the “[32P]NADP+ binding to immobilized protein (TLC); also inhibition of auto-MARylat” value on PARP10 [1] was “found that PARP1, PARP2, and PARP10 indeed were able to bind NADP^+ (Fig. 3a)”. Further, the “recombinant enzyme reaction, product confirmed by mass spectrometry” value at NADK is recorded as “Formation of NADP^+ by our recombinant protein was confirmed by mass spectrometry”. Besides, the “[32P]NADP+ binding to immobilized protein (TLC); also inhibition of auto-PARylat” value at PARP2 was “found that PARP1, PARP2, and PARP10 indeed were able to bind NADP^+ (Fig. 3a)”. Moreover, the Kd at PARP1 [2] is about 39 µM.
Take `NC(=O)c1ccc[n+]([C@@H]2O[C@H](COP(=O)([O-])OP(=O)(O)OC[C@H]3O[C@@H](n4cnc5c(N)ncnc54)[C@H](O)[C@@H]3O)[C@@H](O)[C@H]2O)c1` [NAD^+]: the “recombinant enzyme reaction, product confirmed by mass spectrometry” value on NADK is “recombinant NADK protein that can transfer phosphate moiety from ATP to NAD^+ to synthesize NADP^+”. The “in vitro auto-PARylation, western blot and [32P]NAD+ autoradiography” value on PARP1 [3] is “with NAD^+, PARP1 quickly synthesized PAR chains and autoPARylated itself”. Also, the “in vitro auto-MARylation, autoradiography” value on PARP10 [4] was “Auto-MARylation of PARP10 was examined by autoradiography”.
